Results from patent US7598417B2, “Substituted fluoroethyl ureas as alpha 2 adrenergic agents” (Allergan, Inc., priority 2007, dated 2009).

Tests used:
Format in all cases: cell-based
[1] = target: T1, alpha2B receptor (Homo sapiens, UniProt P18089); test: Receptor Selection and Amplification Technology (RSAT) assay, alpha2B; conditions: for EC50: RSAT, NIH-3T3 cells cotransfected with receptor and Gq/i5, not active = not active at concentrations less than 10 micromolar, read-out: Alpha 2B EC50; for Alpha 2B IA (intrinsic activity): ratio of maximal effect of the drug to maximal effect of standard full agonist brimonidine (UK14304)
T1 construct: expressed in transfected cells; host or cells: NIH-3T3
T1 sequence (P18089 1-450): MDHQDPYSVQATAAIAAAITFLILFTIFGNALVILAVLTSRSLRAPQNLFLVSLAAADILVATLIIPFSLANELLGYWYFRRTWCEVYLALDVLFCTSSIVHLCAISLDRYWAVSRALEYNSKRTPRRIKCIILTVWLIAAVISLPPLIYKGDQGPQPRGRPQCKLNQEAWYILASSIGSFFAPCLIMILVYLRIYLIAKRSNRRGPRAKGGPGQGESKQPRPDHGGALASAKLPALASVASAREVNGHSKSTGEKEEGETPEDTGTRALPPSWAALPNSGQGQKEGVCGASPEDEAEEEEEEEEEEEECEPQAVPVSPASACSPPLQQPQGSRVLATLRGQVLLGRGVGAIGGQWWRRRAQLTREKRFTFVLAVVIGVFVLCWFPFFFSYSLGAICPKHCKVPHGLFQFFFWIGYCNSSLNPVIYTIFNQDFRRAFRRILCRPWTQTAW
Description: (§1) Receptor Selection and Amplification Technology (RSAT) Assay
(§2) The RSAT assay measures a receptor-mediated loss of contact inhibition that results in selective proliferation of receptor-containing cells in a mixed population of confluent cells. The increase in cell number is assessed with an appropriate transfected marker gene such as β-galactosidase, the activity of which can be easily measured in a 96-well format. Receptors that activate the G protein, Gq, elicit this response. Alpha2 receptors, which normally couple to Gi, activate the RSAT response when coexpressed with a hybrid Gq protein that has a Gi receptor recognition domain, called Gq/i5.
(§3) NIH-3T3 cells are plated at a density of 2×10^6 cells in 15 cm dishes and maintained in Dulbecco's modified Eagle's medium supplemented with 10% calf serum. One day later, cells are cotransfected by calcium phosphate precipitation with mammalian expression plasmids encoding p-SV-β-galactosidase (5-10 μg), receptor (1-2 μg) and G protein (1-2 μg). 40 μg salmon sperm DNA may also be included in the transfection mixture. Fresh media is added on the following day and 1-2 days later, cells are harvested and frozen in 50 assay aliquots. Cells are thawed and 100 μl added to 100 μl aliquots of various concentrations of drugs in triplicate in 96-well dishes. Incubations continue 72-96 hr at 37° C. After washing with phosphate-buffered saline, β-galactosidase enzyme activity is determined by adding 200 μl of the chromogenic substrate (consisting of 3.5 mM o-nitrophenyl-β-D-galactopyranoside and 0.5% nonidet P-40 in phosphate buffered saline), incubating overnight at 30° C. and measuring optical density at 420 nm. The absorbance is a measure of enzyme activity, which depends on cell number and reflects a receptor-mediated cell proliferation. The efficacy or intrinsic activity is calculated as a ratio of the maximal effect of the drug to the maximal effect of a standard full agonist for each receptor subtype. Brimonidine, also called UK14304, the chemical structure of which is shown below, is used as the standard agonist for the alpha2A, alpha2B and alpha2C receptors. The EC50 is the concentration at which the drug effect is half of its maximal effect.
The results of the RSAT assay with several exemplary compounds of the invention are disclosed in Table 1 above together with the chemical formulas of these exemplary compounds. EC50 values are nanomolar. NA stands for “not active” at concentrations less than 10 micromolar. IA stands for “intrinsic activity.”

[2] = target: T2, alpha2C receptor (Homo sapiens, UniProt P18825); test: Receptor Selection and Amplification Technology (RSAT) assay, alpha2C; conditions: for EC50 / Alpha 2C EC50: RSAT, NIH-3T3 cells cotransfected with receptor and Gq/i5, not active = not active at concentrations less than 10 micromolar; for EC50: read-out: Alpha 2C EC50; for Alpha 2C IA (intrinsic activity): ratio of maximal effect of the drug to maximal effect of standard full agonist brimonidine (UK14304)
T2 construct: expressed in transfected cells; host or cells: NIH-3T3
T2 sequence (P18825 1-462): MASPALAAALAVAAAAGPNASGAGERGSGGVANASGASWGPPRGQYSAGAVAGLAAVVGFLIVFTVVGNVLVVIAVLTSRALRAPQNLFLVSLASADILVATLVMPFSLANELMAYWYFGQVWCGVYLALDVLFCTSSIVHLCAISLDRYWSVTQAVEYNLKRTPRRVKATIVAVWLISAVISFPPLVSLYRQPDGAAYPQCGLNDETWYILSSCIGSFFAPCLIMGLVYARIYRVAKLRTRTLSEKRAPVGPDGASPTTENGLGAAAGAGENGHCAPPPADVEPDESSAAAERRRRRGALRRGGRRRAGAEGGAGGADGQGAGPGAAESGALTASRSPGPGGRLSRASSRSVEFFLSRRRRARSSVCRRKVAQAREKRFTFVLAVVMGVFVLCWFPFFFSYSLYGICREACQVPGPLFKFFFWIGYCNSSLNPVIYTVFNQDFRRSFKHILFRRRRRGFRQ
Description: as §1, §2, §3
(§4) EC50 values are nanomolar. NA stands for “not active” at concentrations less than 10 micromolar. IA stands for “intrinsic activity.”

[3] = target: T3, alpha2A receptor (Homo sapiens, UniProt P08913); test: Receptor Selection and Amplification Technology (RSAT) assay, alpha2A; conditions: for Alpha 2A EC50 / EC50: RSAT, NIH-3T3 cells cotransfected with receptor and Gq/i5, not active = not active at concentrations less than 10 micromolar; for EC50: read-out: Alpha 2A EC50; for Alpha 2A IA (intrinsic activity): ratio of maximal effect of the drug to maximal effect of standard full agonist brimonidine (UK14304)
T3 construct: expressed in transfected cells; host or cells: NIH-3T3
T3 sequence (P08913 1-465): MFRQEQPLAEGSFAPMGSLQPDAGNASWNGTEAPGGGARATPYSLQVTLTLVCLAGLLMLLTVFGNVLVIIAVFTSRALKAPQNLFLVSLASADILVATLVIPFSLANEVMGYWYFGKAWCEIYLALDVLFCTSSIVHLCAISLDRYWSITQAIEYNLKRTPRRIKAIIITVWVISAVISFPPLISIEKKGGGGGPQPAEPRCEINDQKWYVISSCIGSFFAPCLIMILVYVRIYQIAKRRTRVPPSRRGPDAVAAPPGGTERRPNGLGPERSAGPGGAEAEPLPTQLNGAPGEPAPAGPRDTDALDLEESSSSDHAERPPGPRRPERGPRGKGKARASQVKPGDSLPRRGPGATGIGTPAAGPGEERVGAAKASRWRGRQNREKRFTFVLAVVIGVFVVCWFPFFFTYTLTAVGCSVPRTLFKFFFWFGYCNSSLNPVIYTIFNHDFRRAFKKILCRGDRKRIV
Description: as §1, §2, §3, §4

In the case of `O=C(NCCF)NC1Cc2ccccc2C1`, the EC50 [1] is reported as 18 nM, the “Alpha 2B IA (intrinsic activity)” value [1] is reported as 0.92 and the EC50 [2] is reported as 246 nM. The “Alpha 2C IA (intrinsic activity)” value [2] was 0.48 and the “Alpha 2A EC50” value [3] was “not active”.
For `O=C(NCCF)NC1CCc2ccc(Cl)c(Cl)c21` (stereo not shown), the EC50 [1] was 72.4 nM, the “Alpha 2B IA (intrinsic activity)” value [1] was 1.0 and the EC50 [2] was 29.5 nM. For the same compound, the “Alpha 2C IA (intrinsic activity)” value [2] was 0.43 and the “Alpha 2A EC50” value [3] was “not active”.
For `COc1cccc2c1C(NC(=O)NCCF)CC2` (stereo not shown), the EC50 [1] was 544 nM, the “Alpha 2B IA (intrinsic activity)” value [1] was 0.63 and the EC50 [2] was 972 nM. The “Alpha 2C IA (intrinsic activity)” value [2] was 0.54, the EC50 [3] was 277 nM and the “Alpha 2A IA (intrinsic activity)” value [3] was 0.48.
In the case of `O=C(NCCF)NC1CCc2cccc(Cl)c21` (stereo not shown), the EC50 [1] is reported as 7.2 nM, the “Alpha 2B IA (intrinsic activity)” value [1] is reported as 1.05 and the EC50 [2] is reported as 103 nM. For the same compound, the “Alpha 2C IA (intrinsic activity)” value [2] was 0.78, the EC50 [3] was 29 nM and the “Alpha 2A IA (intrinsic activity)” value [3] was 0.68.
For `Cc1c(Br)ccc2c1C(NC(=O)NCCF)CC2` (stereo not shown), the EC50 [1] was 238 nM, the “Alpha 2B IA (intrinsic activity)” value [1] was 0.37 and the “Alpha 2C EC50” value [2] was “not active”. The “Alpha 2A EC50” value [3] was “not active”.
`O=C(NCCF)NC1CCc2cc(Br)ccc21` (stereo not shown) was tested, and the EC50 [1] was 2620 nM, the “Alpha 2B IA (intrinsic activity)” value [1] was 0.31 and the EC50 [2] was 1260 nM. For the same compound, the “Alpha 2C IA (intrinsic activity)” value [2] was 0.31 and the “Alpha 2A EC50” value [3] was “not active”.
For `O=C(NCCF)N[C@@H]1CCc2ccccc21`, the EC50 [1] was 565 nM, the “Alpha 2B IA (intrinsic activity)” value [1] was 0.55 and the EC50 [2] was 1820 nM. For the same compound, the “Alpha 2C IA (intrinsic activity)” value [2] was 0.61, the EC50 [3] was 693 nM and the “Alpha 2A IA (intrinsic activity)” value [3] was 0.36.
With `O=C(NCCF)NC1CCc2c(F)cccc21` (stereo not shown) the EC50 [1] was 1.8 nM, the “Alpha 2B IA (intrinsic activity)” value [1] was 1.05 and the EC50 [2] was 107 nM. The “Alpha 2C IA (intrinsic activity)” value [2] was 0.68, the EC50 [3] was 130 nM and the “Alpha 2A IA (intrinsic activity)” value [3] was 0.76.
`O=C(NCCF)NC1CCc2cccc(Br)c21` (stereo not shown) was tested, and the EC50 [1] was 20 nM, the “Alpha 2B IA (intrinsic activity)” value [1] was 1.01 and the EC50 [2] was 716 nM. For the same compound, the “Alpha 2C IA (intrinsic activity)” value [2] was 0.97, the EC50 [3] was 111 nM and the “Alpha 2A IA (intrinsic activity)” value [3] was 0.52.
With `Cc1ccc2c(c1)C(NC(=O)NCCF)CC2` (stereo not shown) the EC50 [1] was 32 nM, the “Alpha 2B IA (intrinsic activity)” value [1] was 0.88 and the EC50 [2] was 807 nM. For the same compound, the “Alpha 2C IA (intrinsic activity)” value [2] was 0.31 and the “Alpha 2A EC50” value [3] was “not active”.
`O=C(NCCF)NC1CCCc2c(Cl)cccc21` (stereo not shown) was tested, and the EC50 [1] was 29 nM, the “Alpha 2B IA (intrinsic activity)” value [1] was 1.11 and the EC50 [2] was 310 nM. The “Alpha 2C IA (intrinsic activity)” value [2] was 0.72, the EC50 [3] was 168 nM and the “Alpha 2A IA (intrinsic activity)” value [3] was 0.42.
For `O=C(NCCF)NC1CCc2c(OC(=O)c3ccccc3)cccc21` (stereo not shown), the EC50 [1] was 8.3 nM, the “Alpha 2B IA (intrinsic activity)” value [1] was 0.95 and the EC50 [2] was 102 nM. The “Alpha 2C IA (intrinsic activity)” value [2] was 0.73, the EC50 [3] was 95 nM and the “Alpha 2A IA (intrinsic activity)” value [3] was 0.62.
`COc1cccc2c1CCC2NC(=O)NCCF` (stereo not shown) was tested, and the EC50 [1] was 121 nM, the “Alpha 2B IA (intrinsic activity)” value [1] was 0.72 and the EC50 [2] was 1110 nM. For the same compound, the “Alpha 2C IA (intrinsic activity)” value [2] was 0.59, the EC50 [3] was 2070 nM and the “Alpha 2A IA (intrinsic activity)” value [3] was 0.48.
In the case of `O=C(NCCF)NC1Cc2ccc(F)cc2C1` (stereo not shown), the EC50 [1] is reported as 2200 nM, the “Alpha 2B IA (intrinsic activity)” value [1] is reported as 0.93 and the “Alpha 2C EC50” value [2] is reported as “not active”. For the same compound, the “Alpha 2A EC50” value [3] was “not active”.
For `O=C(NCCF)NC1CCCCc2ccccc21` (stereo not shown), the EC50 [1] was 212 nM, the “Alpha 2B IA (intrinsic activity)” value [1] was 0.65 and the EC50 [2] was 967 nM. The “Alpha 2C IA (intrinsic activity)” value [2] was 0.5, the EC50 [3] was 534 nM and the “Alpha 2A IA (intrinsic activity)” value [3] was 0.3.
